Structures are written as SMILES. Like-named read-outs stand apart in the source and are kept apart here.

The test system of this experiment is Streptococcus mutans UA159. Description: Checkerboard microplate synergy assay (MIC, Synergy Index by the Kull method). It counts as cell-based. Conditions: for HPB Qa: MIC of compound A (HPB) when used in combination with compound B: HPB concentration in the combination with the labelled compound B; for SI index (Synergy Index = Qa/QA + Qb/QB): combination of HPB (raspberry ketone) with the labelled compound B, SI <1 synergistic. On the procedure: The synergistic antimicrobial effect was determined using the commonly accepted method described by Kull […]. and Mayer, R. L. 1961. Applied Microbiology, 9:538-541 Brief description of the assay: Standard checkerboard approach was used to make all the dilutions. HPB (compound A) solution was prepared in DMSO and then serially diluted using a 96-well dilution plate. Automated liquid handler was then used to stamp multiple assay plates out of this dilution plate. Each well of the assay plate was then supplemented with a predetermined concentration of the second antimicrobial (compound B). The final concentration of DMSO was kept constant across the plate for each assay, not exceeding 3% (w/w). Then, S. mutans cell suspension in Todd Hewitt Broth supplemented with yeast extract (THYEB) was added to the appropriate wells of the assay plate with the final cell density being 10^6 cfu/ml. The assay plates were incubated for 48 hours at 37° C. in the atmosphere containing 5% CO2 prior to being evaluated. The lowest concentration of each compound (or a mixture of the two compounds) to inhibit visible growth was taken as the minimum inhibitory concentration (MIC). The MIC was taken as the end point of activity. End points for the combination of compound A (HPB) and compound B were then compared to the end points for each compound being used individually.

Where [1] appears, read: S. mutans, THYEB, 48 hours at 37° C., 5% CO2.
[2] abbreviates: Streptococcus mutans, UA159, S. mutans, THYEB, 48 hours at 37° C., 5% CO2, alone, read-out: Compound B QB: MIC of compound B acting alone.

As for `N=C(NCCCCCCNC(=N)NC(=N)Nc1ccc(Cl)cc1)NC(=N)Nc1ccc(Cl)cc1.O=C(O)[C@H](O)[C@@H](O)[C@H](O)[C@H](O)CO.O=C(O)[C@H](O)[C@@H](O)[C@H](O)[C@H](O)CO` [Chlorhexidine digluconate], under setting [1], the “HPB Qa: MIC of compound A (HPB) when used in combination with compound B” value (“HPB Qa: MIC of compound A (HPB)” below) is on record as 4,000 ppm and the “Compound B Qb: MIC of compound B when used in combination with compound A (HPB)” value (shortened to “Compound B Qb: MIC of compound B … (HPB)”) worked out at 0.4 ppm. Further, the “Compound B QB: MIC of compound B acting alone” value (S. mutans, THYEB, 48 hours at 37° C., 5% CO2, alone) is given as 1.6 ppm. Further, the “SI index (Synergy Index = Qa/QA + Qb/QB)” value (S. mutans) is recorded as at most 0.75.

With `CC12CCC(CC1)C(C)(C)O2` [eucalyptol], the MIC (alone, even when solubilized with 2% of Pluronic F-127) is above 2%. For the same compound, where the note is “standard synergy assay vs S. mutans”, the “Synergy with raspberry ketone (HPB)” value is reported as “not detected”.

Take `Cc1cc(O)ccc1C(C)C` [Isopropyl Methylphenol (IPMP), 4-isopropyl-3-methyl phenol]: under setting [1], the “HPB Qa: MIC of compound A (HPB)” value turned out to be 125 ppm and the “Compound B Qb: MIC of compound B … (HPB)” value amounted to 250 ppm. Also, the “SI index (Synergy Index = Qa/QA + Qb/QB)” value (S. mutans) is at most 0.5016. Further, under “S. mutans, listed as IPMP”, the “SI index (Synergy Index = Qa/QA + Qb/QB)” value is listed as at most 0.5016. Moreover, the MIC under setting [2] was 500 µg/mL.

`CC1CCC(C(C)C)C(O)C1` (centres unmarked) [Menthol]: under setting [1], the “HPB Qa: MIC of compound A (HPB)” value is reported as 4,000 ppm and the “Compound B Qb: MIC of compound B … (HPB)” value is reported as 1,000 ppm. The MIC under setting [2] is at least 4000 µg/mL.

`Cc1ccc(C(C)C)c(O)c1` [Thymol]: under setting [1], the “HPB Qa: MIC of compound A (HPB)” value was 4,000 ppm and the “Compound B Qb: MIC of compound B … (HPB)” value came out at 15.6 ppm. Besides, the “SI index (Synergy Index = Qa/QA + Qb/QB)” value (S. mutans) is at most 0.625. The “SI index (Synergy Index = Qa/QA + Qb/QB)” value (S. mutans, listed as thymol) is listed as at most 0.625. In addition, the MIC under setting [2] worked out at 125 µg/mL.

Take `CC(=O)CCc1ccc(O)cc1` [HPB, 4-(4-hydroxyphenyl) butan-2-one]: where the note is “Streptococcus mutans, UA159, S. mutans, THYEB, 48 hours at 37° C., 5% CO2, alone, read-out: HPB QA: MIC of compound A (HPB) acting alone”, the MIC was at least 8000 µg/mL.

These data come from patent publication US20230263712A1, “AN ORAL CARE ANTIMICROBIAL COMPOSITION, PROCESS FOR PREPARING THE SAME AND METHOD OF USE THEREOF” (ISP INVESTMENTS LLC, priority 2020, published 2023).
